Experimental data from patent publication US6890951B2, “Treatment of addiction and addiction-related behavior” (Brookhaven Science Associates LLC, priority 1998, dated 2005).
“Also recorded” adds a separate entry of the source. Like-named read-outs stand apart in the source and are kept apart here.

Experiments:
[1] = test system: synaptic DA ([11C]-raclopride binding, corpus striatum); assay: Primate PET: [11C]-raclopride DV ratio after cocaine challenge; type: in vivo, baboons (Papio anubis); conditions: Group 2: cocaine hydrochloride 0.5, 1.0 or 2.0 mg/kg, 5 or 30 minutes prior to second [11C]-raclopride injection
Experimental: Arterial blood samples were obtained throughout the study and selected plasma samples were analyzed for the presence of unchanged radio tracer carbon-11. Animals were not removed from the gantry between isotope injections. Regions of interest (ROI's) were drawn directly on the PET images. Briefly, the corpus striatum was outlined, bilaterally, on every transaxial slice upon which it appeared. The cerebellar ROI was drawn across the midline at the level of the cerebellar vermis. ROI's from the first study were then copied directly onto the corresponding slice from the second. By examining placement of the ROI's on the second scan changes could be made, if necessary, in ROI position only. This multi planar method of analysis reduced differences that may arise due to movement of the animal within the gantry during the scanning interval.
A graphical method for determining the distribution volume (DV) was developed previously for the kinetic analysis of the [^11C]-raclopride data. The DV ratio was the most reproducible measure of raclopride uptake. The ratio is the DV from a receptor-rich region (corpus striatum) to the DV of a non-receptor region (cerebellum). The free receptor concentration was directly proportional to the DV ratio of 1. […]

male Sprague-Dawley rats = type: in vivo
Description: In all rodent studies, male Sprague-Dawley rats were used (200-225 g, Taconic farms, Germantown, N.Y.). Animals were allowed to acclimate to the animal housing facility for at least 5 days prior to beginning the experiments. […] The conditioning procedure for the acquisition phase consisted of 12 sessions carried out consecutively over 12 days.
The animals in each group were randomly assigned to a 2×2 factorial design with one factor being the pairing chamber and the other factor being the order of conditioning. The animals that received either saline or cocaine were injected and confined to the appropriate compartment for 30 minutes.
[…] The amount of time spent in each chamber was recorded using an automated infrared beam electronically coupled to a timer.
In this example the procedure outlined in Section 2 of Materials and Methods was followed.

freely moving rats = assay: Cocaine-induced stereotypy after a sensitizing regimen of cocaine; type: in vivo
Experimental: The phenomenon of sensitization is observed with virtually all drugs of addiction. Sensitization is believed to play a role in the etiology of addiction.
Animals received 15 mg/kg i.p. of cocaine and stereotypy was determined in standard locomotor cages. For 6 consecutive days, animals received 15 mg/kg i.p. of cocaine once a day in their home cages. Eight days later, animals were rechallenged with 15 mg/kg i.p. of cocaine and stereotypy was determined. A five point rating scale was used to assess stereotypy and the rater was blind to the treatment received by each animal.

NAc DA = assay: Microdialysis: cocaine/heroin (speedball) induced increases in NAc DA; type: in vivo, rats; conditions: cocaine 20 mg/kg i.p. or heroin 0.5 mg/kg i.p. alone
Experimental: In vivo microdialysis studies were performed using adult male Sprague-Dawley rats (Taconic Farms) as detailed previously (Morgan and Dewey, 1998). Cocaine, a dopamine reuptake inhibitor, (n=6-8) was administered (i.p.) at a dose of 20 mg/kg while heroin, an indirect dopamine releaser, (n=6-8) was administered (i.p.) at a dose of 0.5 mg/kg. In studies designed to investigate the synergistic effects of a cocaine/heroin combination (n=6-8), both drugs were administered at the identical dose used in the single drug studies. Alone cocaine produced a marked elevation in extracellular DA of approximately 380% above baseline values, 60 minutes following administration. DA returned to baseline within 120 minutes. In contrast, heroin increased NAc DA by only 70%, 60 minutes following administration, returning to baseline within 140 minutes. However, when combined, the two drugs produced an increase in NAc DA of approximately 1000%, 180 minutes following administration that had not returned to baseline values by 200 minutes after reaching peak values (FIG. 9).

[2] = test system: extracellular DA levels in the NACC; assay: Microdialysis: cocaine-induced increases in extracellular DA, earlier studies
[3] = test system: extracellular dopamine in the nucleus accumbens; assay: Microdialysis: Topiramate on cocaine-induced increases in nucleus accumbens dopamine; type: in vivo, rats; conditions: Topiramate 40 mg/kg i.p. 60 minutes prior to cocaine challenge
Experimental: In this example, we examined the effects of Topiramate sixty minutes prior to a cocaine challenge. The Topiramate was administered as an intraperitoneal injection, of 40 mg/kg, 60 minutes prior to a cocaine challenge.

[4] = test system: extracellular dopamine in the nucleus accumbens; assay: Microdialysis: Topiramate on nicotine-induced increases in nucleus accumbens dopamine (Example 14); type: in vivo, rats; conditions: Rattus norvegicus, ip, 60 mins pretreatment
Experimental: These studies were performed using the identical experimental technique we have successfully used in more than 5000 microdialysis studies in rats. Adult male Sprague-Dawley rats (200-300 g, Taconic Farms) were anesthetized with ketamine HCl/xylazine (100 mg/kg), and siliconized guide cannulae are stereotactically implanted in the NACC (1.5 mm anterior to bregma, 1 mm lateral to bregma, and 5.6 mm ventral from the cortical surface, Paxinos and Watson, 2nd edition, 1986) two days prior to the microdialysis experiment.
On the day of the microdialysis study, rats are placed in a bowl at least 2 hrs prior to fraction collection. […]
Ten minute samples are collected within the injection loop (50 μl), injected online and analyzed until three sequential injections differ by less than 10 percent. […]
As stated previously, the first three data points that differ by less than 10% are used as the basal levels, and subsequent measurements made following a challenge drug are converted to a percentage of these values. All subsequent analyses are determined using the ‘percentage of basal’ values.
Locomotor activity was monitored throughout the entire period of study using an Optical Animal Activity Monitor (Bioanalytical Systems, West Lafayette, Ind.), which uses an optical sensor and records activity on both a chart recorder and via computer. […]

Sprague-Dawley rats = assay: Gross locomotor activity (Optical Animal Activity Monitor); type: in vivo; conditions: for nicotine-induced increases in gross locomotor activity: topiramate 25 and 50 mg/kg
Description: Locomotor activity was monitored throughout the entire period of study using an Optical Animal Activity Monitor (Bioanalytical Systems, West Lafayette, Ind.), which uses an optical sensor and records activity on both a chart recorder and via computer.
Locomotor data was collected with the Optical Animal Activity Monitor (OAAM, BAS, West Lafayette, Ind.). This system is attached to the microdialysis “Raturn®” machines and measures locomotor activity through an optical sensor attached directly to the animal. Output from the Raturn® gives a direct index of locomotor activity.

[5] = test system: mesolimbic extracellular dopamine (DA), NAcc; assay: Microdialysis Example 15: extracellular dopamine after nicotine; type: in vivo
Experimental: (§1) Briefly, two days prior to the microdialysis experiments, siliconized guide cannulae were implanted targeting the NAcc (A=+1.5 mm, L=−1.0 mm, V=−5.6 mm). […] Dialysate samples were assayed for monoamine content by microbore high-pressure liquid chromatography (HPLC) coupled with electrochemical detection. […] Peak effects were analyzed with a one-way ANOVA, and post-hoc Bonferroni t-test of topiramate pretreated groups compared to saline pretreated controls provided ANOVA significance at a critical value of 0.05.

norepinephrine (NE) = assay: Microdialysis Example 15: extracellular norepinephrine after nicotine; type: in vivo
Experimental: as §1

serotonin (5-HT) = assay: Microdialysis Example 15: extracellular serotonin after nicotine; type: in vivo
Experimental: as §1

[6] = acquisition, Saline/Cocaine pairing, cocaine 20 mg/kg (Table IV)
[7] = acquisition, Saline/Cocaine pairing, cocaine 20 mg/kg (Table V)
[8] = acquisition, Saline/Cocaine pairing, cocaine 20 mg/kg (Table VI)
[9] = expression, Saline/Cocaine pairings, saline on test day (Table IX)
[10] = expression, Saline/Cocaine pairings, saline on test day (Table VII)
[11] = expression, Saline/Cocaine pairings, saline on test day (Table VIII)
[12] = expression, Saline/Cocaine pairings, saline on test day (Table X)

COC(=O)[C@H]1[C@@H](OC(=O)c2ccccc2)C[C@@H]2CC[C@H]1N2C [Cocaine]
reduction in the mean DV ratio [1]: greater than 30% | Time spent in chambers, Unpaired (male Sprague-Dawley rats; acquisition, Saline/Cocaine pairing, cocaine 20 mg/kg (Table III)): 3.9 ± 0.4 min | Time spent in chambers, Paired (male Sprague-Dawley rats; acquisition, Saline/Cocaine pairing, cocaine 20 mg/kg (Table III, 75 mg/kg GVG experiment)): 11.1 ± 0.3^4 min | Time spent in chambers, Paired (male Sprague-Dawley rats; [6]): 11.8 ± 0.5^4 mins | Time spent in chambers, Unpaired (male Sprague-Dawley rats; [6]): 3.2 ± 0.5 min | Time spent in chambers, Paired (male Sprague-Dawley rats; [7]): 11.6 ± 0.5^4 min | Time spent in chambers, Unpaired (male Sprague-Dawley rats; [7]): 3.4 ± 0.4^5 min | Time spent in chambers, Paired (male Sprague-Dawley rats; [8]): 11.2 ± 0.6^4 mins | Time spent in chambers, Unpaired (male Sprague-Dawley rats; [8]): .8 ± 0.5^5 mins | Time spent in chambers, Paired (male Sprague-Dawley rats; cocaine 5.0 mg/kg i.p.): 8.2 ± 0.4 min | Time spent in chambers, Unpaired (male Sprague-Dawley rats; cocaine 5.0 mg/kg i.p.): 6.8 ± 0.5 min | Time spent in chambers, Paired (male Sprague-Dawley rats; cocaine 10.0 mg/kg i.p.): 9.6 ± 0.5^2 mins | Time spent in chambers, Unpaired (male Sprague-Dawley rats; cocaine 10.0 mg/kg i.p.): 5.4 ± 0.3 min | Time spent in chambers, Paired (male Sprague-Dawley rats; cocaine 20.0 mg/kg i.p.): 11.8 ± 0.4^3 mins | Time spent in chambers, Unpaired (male Sprague-Dawley rats; cocaine 20.0 mg/kg i.p.): 3.2 ± 0.4^4 mins | Time spent in chambers, Paired (male Sprague-Dawley rats; [9]): 11.1 ± 0.5^3 min | Time spent in chambers, Unpaired (male Sprague-Dawley rats; [9]): 3.9 ± 0.4^4 min | Time spent in chambers, Paired (male Sprague-Dawley rats; [10]): 11.8 ± 0.5^3 min | Time spent in chambers, Unpaired (male Sprague-Dawley rats; [10]): 3.2 ± 0.5 min | Time spent in chambers, Paired (male Sprague-Dawley rats; [11]): 12.2 ± 0.6^3 min | Time spent in chambers, Unpaired (male Sprague-Dawley rats; [11]): 2.8 ± 0.5 min | Time spent in chambers, Paired (male Sprague-Dawley rats; [12]): 12.5 ± 0.8^3 min | Time spent in chambers, Unpaired (male Sprague-Dawley rats; [12]): 2.5 ± 0.6^4 min | Stereotypies on Day 15 (freely moving rats; cocaine 15 mg/kg i.p. rechallenge after sensitizing regimen, 1 ml/kg i.p. 0.9% NaCl before): 4.1 ± 0.5 | Stereotypy score on Day 1 (freely moving rats; cocaine 15 mg/kg i.p., group later given 0.9% NaCl, five point rating scale): 2.5 ± 0.4 | time for DA to return to baseline (NAc DA): ≤ 120 min | increase of NACC DA levels (rank order) [2]: 450%

CC1(C)O[C@@H]2[C@@H](CO[C@@]3(COS(N)(=O)=O)OC(C)(C)O[C@@H]23)O1 [Topiramate]
attenuation of cocaine-induced increases in extracellular dopamine [3]: approximately 15% | inhibition at 25 mg/kg ([4]; topiramate 25 mg/kg ip): ~50% | inhibition at 50 mg/kg ([4]; topiramate 50 mg/kg ip): ~70% | gross locomotor activity, topiramate alone (Sprague-Dawley rats; 25 and 50 mg/kg): did not alter gross locomotor activity; also recorded: did not attenuate gross locomotor activity | nicotine-induced increases in gross locomotor activity (Sprague-Dawley rats): significantly attenuate | nicotine-induced increases in gross locomotor activity (Sprague-Dawley rats; listed as topiramate): markedly attenuated | reduction of the NAcc DA response to acute nicotine ([5]; topiramate 25 mg/kg): 67% | reduction of the NAcc DA response to acute nicotine ([5]; topiramate 50 mg/kg): 83% | neurochemical sensitization (nicotine-induced NAcc DA release) ([5]; topiramate 75 mg/kg, animals pretreated with nicotine for 14 days): dramatically reduced | extracellular basal DA concentrations ([5]; topiramate alone): did not produce any significant changes | inhibition at 25 mg/kg (norepinephrine (NE); topiramate 25 mg/kg, read-out: inhibition of nicotine-induced increases in NE activity): 53% | inhibition at 50 mg/kg (norepinephrine (NE); topiramate 50 mg/kg, read-out: inhibition of nicotine-induced increases in NE activity): 60% | extracellular basal NE concentrations (norepinephrine (NE); topiramate alone): did not produce any significant changes | inhibition of nicotine-induced increases in 5-HT activity (serotonin (5-HT); topiramate 25 or 50 mg/kg): not | increase in basal 5-HT activity (serotonin (5-HT); topiramate alone, non-significant): 20%
